# Laboratory results taken from ChEMBL document CHEMBL4251597, “Discovery and evolution of aloperine derivatives as a new family of HCV inhibitors with novel mechanism” (Eur J Med Chem, 2018).
# Active and inactive are the calls of the source. The calls are words filed in the database; no cut-off is given here.
# Key:
# [1] = system: Hepatitis C virus; assay: Antiviral activity against HCV J6/JFH/JC-1 infected in human Huh7.5 cells assessed as inhibition of viral RNA replication after 72 hrs by qRT-PCR method; format: functional, organism-based, Hepacivirus hominis; conditions: J6/JFH/JC-1, Huh7.5, 72 h
# [2] = Cytotoxicity against human Huh7.5 cells after 72 hrs by MTT assay; format: cell-based
# [3] = Selectivity index, ratio of CC50 for human Huh7.5 cells to EC50 for HCV J6/JFH/JC-1; format: toxicity; conditions: read-out: Ratio CC50/EC50
# [4] = Tmax in mouse at 25 mg/kg, po after 0.25 to 6 hrs; format: ADME, organism-based; conditions: in vivo
# [5] = Cmax in mouse at 25 mg/kg, po after 0.25 to 6 hrs; format: ADME, organism-based; parameters: dose 25 mg/kg, route oral; conditions: in vivo
# [6] = AUC (0 to t) in mouse at 25 mg/kg, po after 0.25 to 6 hrs; format: ADME, organism-based; parameters: time upper 6 hr, time lower 0.25 hr, dose 25 mg/kg, route oral; conditions: in vivo
# [7] = MRT in mouse at 25 mg/kg, po after 0.25 to 6 hrs; format: ADME, organism-based; conditions: in vivo
# [8] = Half life in mouse at 25 mg/kg, po after 0.25 to 6 hrs; format: ADME, organism-based; conditions: in vivo
# [9] = Acute toxicity in po dosed Kunming mouse measured for 7 days; format: organism-based; conditions: in vivo
# [10] = system: Hepatitis C virus; assay: Antiviral activity against HCV J6/JFH/JC-1 infected in human Huh7.5 cells assessed as inhibition of NS3/4A D168V mutant levels at 0.01 to 1 uM treated with fresh media containing compound every 2 days by Western blot method; format: functional, organism-based; conditions: Hepacivirus hominis
# [11] = system: Hepatitis C virus; assay: Antiviral activity against HCV J6/JFH/JC-1 infected in human Huh7.5 cells harboring NS3/4A D168V mutant assessed as inhibition of viral core protein levels at 0.01 to 1 uM treated with fresh media containing compound every 2 days by Western blot method; format: functional, organism-based; conditions: Hepacivirus hominis
structure (smiles),measurement,setting,value
CC(C)Oc1ccc(S(=O)(=O)N2CCCC3=C[C@H]4C[C@H](CN5CCCC[C@H]45)[C@@H]32)cc1,EC50,[1],1.81 µM
same,CC50 at 72 h,[2],34.8 µM
same,selectivity ratio,[3],19.2
CC(=O)c1ccc(S(=O)(=O)N2CCCC3=C[C@H]4C[C@H](CN5CCCC[C@H]45)[C@@H]32)cc1,EC50,[1],5.57 µM
same,CC50 at 72 h,[2],234 µM
same,selectivity ratio,[3],42.1
O=S(=O)(c1ccc2c(c1)CCO2)N1CCCC2=C[C@H]3C[C@H](CN4CCCC[C@H]34)[C@@H]21,EC50,[1],8.65 µM
same,CC50 at 72 h,[2],217 µM
same,selectivity ratio,[3],25.1
O=C1c2ccccc2C(=O)N1CCS(=O)(=O)N1CCCC2=C[C@H]3C[C@H](CN4CCCC[C@H]34)[C@@H]21,EC50,[1],68.6 µM
same,CC50 at 72 h,[2],> 500 µM
same,selectivity ratio,[3],> 7.29
Nc1ccc(S(=O)(=O)N2CCCC3=C[C@H]4C[C@H](CN5CCCC[C@H]45)[C@@H]32)cc1,EC50,[1],10.7 µM
same,CC50 at 72 h,[2],288 µM
same,selectivity ratio,[3],26.9
N#Cc1ccccc1CN1CCCC2=C[C@H]3C[C@H](CN4CCCC[C@H]34)[C@@H]21,EC50,[1],1.95 µM
same,CC50 at 72 h,[2],18.8 µM
same,selectivity ratio,[3],9.64
O=C(O)c1ccc(C(=O)N2CCCC3=C[C@H]4C[C@H](CN5CCCC[C@H]45)[C@@H]32)cc1,EC50,[1],73.7 µM
same,CC50 at 72 h,[2],> 500 µM
same,selectivity ratio,[3],> 6.78
O=S(=O)(c1cccc2cccnc12)N1CCCC2=C[C@H]3C[C@H](CN4CCCC[C@H]34)[C@@H]21,EC50,[1],7.35 µM
same,CC50 at 72 h,[2],249 µM
same,selectivity ratio,[3],33.8
COc1ccc(C(=O)N2CCCC3=C[C@H]4C[C@H](CN5CCCC[C@H]45)[C@@H]32)cc1,EC50,[1],62.5 µM
same,CC50 at 72 h,[2],> 500 µM
same,selectivity ratio,[3],> 8
O=S(=O)(c1ccc2c(c1)OCCO2)N1CCCC2=C[C@H]3C[C@H](CN4CCCC[C@H]34)[C@@H]21,EC50,[1],23.5 µM
same,CC50 at 72 h,[2],> 500 µM
same,selectivity ratio,[3],> 21.3
CC(=O)Nc1nc(C)c(S(=O)(=O)N2CCCC3=C[C@H]4C[C@H](CN5CCCC[C@H]45)[C@@H]32)s1,EC50,[1],12.4 µM
same,CC50 at 72 h,[2],182 µM
same,selectivity ratio,[3],14.7
COc1ccc(S(=O)(=O)N2CCCC3=C[C@H]4C[C@H](CN5CCCC[C@H]45)[C@@H]32)cc1,EC50,[1],6.01 µM
same,CC50 at 72 h,[2],102 µM
same,selectivity ratio,[3],16.9
COc1ccc(S(=O)(=O)N2CCCC3=C[C@H]4C[C@H](CN5CCCC[C@H]45)[C@@H]32)cc1C,EC50,[1],4.89 µM
same,CC50 at 72 h,[2],73.2 µM
same,selectivity ratio,[3],15
C1=C2CCCN[C@H]2[C@@H]2C[C@H]1[C@H]1CCCCN1C2,EC50,[1],4.32 µM
same,CC50 at 72 h,[2],235 µM
same,selectivity ratio,[3],54.5
O=[N+]([O-])c1ccc(CN2CCCC3=C[C@H]4C[C@H](CN5CCCC[C@H]45)[C@@H]32)cc1,EC50,[1],3.56 µM
same,CC50 at 72 h,[2],94.4 µM
same,selectivity ratio,[3],26.5
COC(=O)c1ccc(C(=O)N2CCCC3=C[C@H]4C[C@H](CN5CCCC[C@H]45)[C@@H]32)cc1,EC50,[1],11.6 µM
same,CC50 at 72 h,[2],271 µM
same,selectivity ratio,[3],23.4
COc1ccc(Cl)cc1S(=O)(=O)N1CCCC2=C[C@H]3C[C@H](CN4CCCC[C@H]34)[C@@H]21,EC50,[1],1.21 µM
same,CC50 at 72 h,[2],92.9 µM
same,selectivity ratio,[3],76.8
COc1ccccc1CN1CCCC2=C[C@H]3C[C@H](CN4CCCC[C@H]34)[C@@H]21,EC50,[1],6.78 µM
same,CC50 at 72 h,[2],69.3 µM
same,selectivity ratio,[3],10.2
Cc1nc(N)sc1S(=O)(=O)N1CCCC2=C[C@H]3C[C@H](CN4CCCC[C@H]34)[C@@H]21,EC50,[1],6.03 µM
same,CC50 at 72 h,[2],209 µM
same,selectivity ratio,[3],34.7
NCCS(=O)(=O)N1CCCC2=C[C@H]3C[C@H](CN4CCCC[C@H]34)[C@@H]21,EC50,[1],2.72 µM
same,CC50 at 72 h,[2],264 µM
same,selectivity ratio,[3],97.2
same,Tmax,[4],1.17 h
same,Cmax,[5],1450 nM
same,AUC(0-t),[6],7.78 µM·h
same,MRT,[7],5.96 h
same,half-life,[8],10.2 h
same,LD50 at 168 h,[9],750 mg/kg
C1=C2CCCN(Cc3ccncc3)[C@H]2[C@@H]2C[C@H]1[C@H]1CCCCN1C2,EC50,[1],97.9 µM
same,CC50 at 72 h,[2],> 500 µM
same,selectivity ratio,[3],> 5.11
COc1ccc2c(O[C@@H]3C[C@H]4C(=O)N[C@]5(C(=O)NS(=O)(=O)C6CC6)C[C@H]5/C=C/CCCCN(C)C(=O)[C@@H]4C3)cc(-c3nc(C(C)C)cs3)nc2c1C,inhibition,[10],inactive
same,inhibition,[11],inactive
N#Cc1ccccc1S(=O)(=O)N1CCCC2=C[C@H]3C[C@H](CN4CCCC[C@H]34)[C@@H]21,EC50,[1],3.32 µM
same,CC50 at 72 h,[2],256 µM
same,selectivity ratio,[3],77.1
N#Cc1ccc(S(=O)(=O)N2CCCC3=C[C@H]4C[C@H](CN5CCCC[C@H]45)[C@@H]32)cc1,EC50,[1],3.4 µM
same,CC50 at 72 h,[2],265 µM
same,selectivity ratio,[3],78
same,Tmax,[4],0.33 h
same,Cmax,[5],410 nM
same,AUC(0-t),[6],0.77 µM·h
same,MRT,[7],1.82 h
same,half-life,[8],1.97 h
O=S(=O)(c1cccc2nsnc12)N1CCCC2=C[C@H]3C[C@H](CN4CCCC[C@H]34)[C@@H]21,EC50,[1],5.5 µM
same,CC50 at 72 h,[2],314 µM
same,selectivity ratio,[3],57.2
COc1ccc(S(=O)(=O)N2CCCC3=C[C@H]4C[C@H](CN5CCCC[C@H]45)[C@@H]32)cc1OC,EC50,[1],6.39 µM
same,CC50 at 72 h,[2],215 µM
same,selectivity ratio,[3],33.6
O=C(O)c1ccccc1S(=O)(=O)N1CCCC2=C[C@H]3C[C@H](CN4CCCC[C@H]34)[C@@H]21,EC50,[1],46.4 µM
same,CC50 at 72 h,[2],> 500 µM
same,selectivity ratio,[3],> 10.8
COC(=O)c1ccccc1S(=O)(=O)N1CCCC2=C[C@H]3C[C@H](CN4CCCC[C@H]34)[C@@H]21,EC50,[1],8.2 µM
same,CC50 at 72 h,[2],269 µM
same,selectivity ratio,[3],32.8
COC(=O)c1ccc(S(=O)(=O)N2CCCC3=C[C@H]4C[C@H](CN5CCCC[C@H]45)[C@@H]32)cc1,EC50,[1],80.6 µM
same,CC50 at 72 h,[2],283 µM
same,selectivity ratio,[3],3.51
CS(=O)(=O)c1ccc(S(=O)(=O)N2CCCC3=C[C@H]4C[C@H](CN5CCCC[C@H]45)[C@@H]32)cc1,EC50,[1],18.7 µM
same,CC50 at 72 h,[2],186 µM
same,selectivity ratio,[3],9.97
O=C(O)c1ccc(S(=O)(=O)N2CCCC3=C[C@H]4C[C@H](CN5CCCC[C@H]45)[C@@H]32)cc1,EC50,[1],> 167 µM
same,CC50 at 72 h,[2],> 500 µM
COc1cc(C(=O)N2CCCC3=C[C@H]4C[C@H](CN5CCCC[C@H]45)[C@@H]32)cc(OC)c1OC,EC50,[1],28.3 µM
same,CC50 at 72 h,[2],290 µM
same,selectivity ratio,[3],10.2
O=S(=O)(c1ccncc1)N1CCCC2=C[C@H]3C[C@H](CN4CCCC[C@H]34)[C@@H]21,EC50,[1],11.4 µM
same,CC50 at 72 h,[2],371 µM
same,selectivity ratio,[3],32.6
COc1ccc(CN2CCCC3=C[C@H]4C[C@H](CN5CCCC[C@H]45)[C@@H]32)cc1,EC50,[1],0.96 µM
same,CC50 at 72 h,[2],83.1 µM
same,selectivity ratio,[3],86.6
CC(=O)Nc1ccc(S(=O)(=O)N2CCCC3=C[C@H]4C[C@H](CN5CCCC[C@H]45)[C@@H]32)cc1,EC50,[1],54.7 µM
same,CC50 at 72 h,[2],309 µM
same,selectivity ratio,[3],5.64
